Reference: ChEMBL document CHEMBL1201862, “PubChem BioAssay data set” (2004)
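Compound exposure: 48 hours, 5 concentrations, 96-well plates. GI50 is the concentration that inhibits growth by half.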 Activity calls are given as the source filed them. Cut-off read from the data, not from the text of the source: active = GI50 up to about 1.1 µM and inactive = higher.

Key:
Assay in all cases: DTP human tumour cell line panel, 48 h
Malme-3M = system: Malme-3M
MOLT-4 = system: MOLT-4
RXF 393 = system: RXF 393
COLO 205 = system: COLO 205
SN12C = system: SN12C
NCI-H522 = system: NCI-H522
HL-60 = system: HL-60
M19-MEL = system: M19-MEL
DMS-114 = system: DMS-114
SNB-75 = system: SNB-75
NCI-H23 = system: NCI-H23
OVCAR-4 = system: OVCAR-4
SK-OV-3 = system: SK-OV-3
SK-MEL-28 = system: SK-MEL-28
XF498 = system: XF498
OVCAR-5 = system: OVCAR-5
T47D = system: T47D
BT-549 = system: BT-549
Hs-578T = system: Hs-578T
DU-145 = system: DU-145

SMILES | GI50 (Malme-3M) | GI50 (MOLT-4) | GI50 (RXF 393) | GI50 (COLO 205) | GI50 (SN12C) | GI50 (NCI-H522) | GI50 (HL-60) | GI50 (M19-MEL) | GI50 (DMS-114) | GI50 (SNB-75) | GI50 (NCI-H23) | GI50 (OVCAR-4) | GI50 (SK-OV-3) | GI50 (SK-MEL-28) | GI50 (XF498) | GI50 (OVCAR-5) | GI50 (T47D) | GI50 (BT-549) | GI50 (Hs-578T) | GI50 (DU-145)
COc1ccc(-c2cc(=O)c3c(O)c(OC)c(O)c(OC)c3o2)cc1OC | > 100 µM (inactive) | 42.3 µM (inactive) | 14.1 µM (inactive) | 92.3 µM (inactive) | 43.4 µM (inactive) | 12 µM (inactive) | 41.3 µM (inactive) | > 100 µM (inactive) | > 100 µM (inactive) | 21.8 µM (inactive) | > 100 µM (inactive) | > 100 µM (inactive) | 80 µM (inactive) | > 100 µM (inactive) | 78.3 µM (inactive) | – | – | – | – | –
CCc1cc2c(Nc3ccccc3)c3c(nc2s1)CCCC3 | > 100 µM (inactive) | 3.23 µM (inactive) | 22.4 µM (inactive) | > 100 µM (inactive) | > 100 µM (inactive) | – | 6.05 µM (inactive) | 40.7 µM (inactive) | 27.5 µM (inactive) | 7.46 µM (inactive) | – | 24 µM (inactive) | > 100 µM (inactive) | > 100 µM (inactive) | 13.4 µM (inactive) | > 100 µM (inactive) | – | – | – | –
COC(=O)C(=O)C(C(=O)C(=O)Nc1ccccc1C(N)=O)c1nc2ccc([N+](=O)[O-])cc2nc1O (stereo unspecified) | > 100 µM (inactive) | > 100 µM (inactive) | > 100 µM (inactive) | > 100 µM (inactive) | > 100 µM (inactive) | > 100 µM (inactive) | > 100 µM (inactive) | > 100 µM (inactive) | – | > 100 µM (inactive) | > 100 µM (inactive) | > 100 µM (inactive) | > 100 µM (inactive) | > 100 µM (inactive) | > 100 µM (inactive) | > 100 µM (inactive) | – | – | – | –
Cc1ccccc1C(=O)Oc1ccc(Oc2ccccc2)cc1 | > 100 µM (inactive) | 67 µM (inactive) | > 100 µM (inactive) | > 100 µM (inactive) | > 100 µM (inactive) | – | 18.2 µM (inactive) | > 100 µM (inactive) | > 100 µM (inactive) | > 100 µM (inactive) | > 100 µM (inactive) | > 100 µM (inactive) | > 100 µM (inactive) | – | > 100 µM (inactive) | > 100 µM (inactive) | – | – | – | –
CCCN1C(=O)CNC(=O)c2[nH]cnc21 | > 100 µM (inactive) | > 100 µM (inactive) | > 100 µM (inactive) | > 100 µM (inactive) | > 100 µM (inactive) | > 100 µM (inactive) | > 100 µM (inactive) | > 100 µM (inactive) | > 100 µM (inactive) | > 100 µM (inactive) | > 100 µM (inactive) | – | > 100 µM (inactive) | > 100 µM (inactive) | > 100 µM (inactive) | > 100 µM (inactive) | – | – | – | –
Cc1ccc(Oc2ccc([N+](=O)[O-])cc2[N+](=O)[O-])c(C)c1 | 75 µM (inactive) | 21.5 µM (inactive) | 20.5 µM (inactive) | – | 41.2 µM (inactive) | – | 22.9 µM (inactive) | 51.3 µM (inactive) | 26.2 µM (inactive) | 37.5 µM (inactive) | 28.7 µM (inactive) | 32.2 µM (inactive) | > 100 µM (inactive) | 67.8 µM (inactive) | 42.1 µM (inactive) | 82.8 µM (inactive) | – | – | – | –
CCCC1=C(CC)C(C(=O)Nc2c(C)cccc2C)=NC(S)N1 (stereo unspecified) | > 100 µM (inactive) | > 100 µM (inactive) | – | > 100 µM (inactive) | > 100 µM (inactive) | > 100 µM (inactive) | > 100 µM (inactive) | > 100 µM (inactive) | > 100 µM (inactive) | 59 µM (inactive) | > 100 µM (inactive) | > 100 µM (inactive) | – | > 100 µM (inactive) | > 100 µM (inactive) | > 100 µM (inactive) | – | – | – | –
C=CCn1cc(C(=O)NC(=O)NCCCCCOC(=O)CCCCCCCCCCC(=O)OCCCCCNC(=O)NC(=O)c2cn(CC=C)c(=O)n(C)c2=O)c(=O)n(C)c1=O | > 100 µM (inactive) | > 100 µM (inactive) | > 100 µM (inactive) | > 100 µM (inactive) | > 100 µM (inactive) | > 100 µM (inactive) | > 100 µM (inactive) | > 100 µM (inactive) | > 100 µM (inactive) | > 100 µM (inactive) | > 100 µM (inactive) | – | > 100 µM (inactive) | > 100 µM (inactive) | > 100 µM (inactive) | > 100 µM (inactive) | – | – | – | –
COc1ccc(C2N3CCCCC3[C@@H]3c4[nH]c5ccccc5c4CCN23)c(OC)c1 (stereo partly specified) | – | 21 µM (inactive) | 14.1 µM (inactive) | 18.2 µM (inactive) | 18 µM (inactive) | – | 18.2 µM (inactive) | 20 µM (inactive) | 18.7 µM (inactive) | – | 22.6 µM (inactive) | 25.5 µM (inactive) | 30.4 µM (inactive) | 19.1 µM (inactive) | 14.1 µM (inactive) | 22.2 µM (inactive) | – | – | – | –
CCC12CCCN(Cc3ccccc3)C1c1c(n(C)c3ccccc13)C(C(=O)OC)C2 (stereo unspecified) | > 239 µM (inactive) | 74.3 µM (inactive) | 128 µM (inactive) | 107 µM (inactive) | 84.1 µM (inactive) | 53.2 µM (inactive) | 87.3 µM (inactive) | 112 µM (inactive) | 90.6 µM (inactive) | – | 77.1 µM (inactive) | – | 236 µM (inactive) | > 239 µM (inactive) | 36.8 µM (inactive) | 78.2 µM (inactive) | – | – | – | –
CCOC(=O)Cc1nc2ccc3c(c2nc1O)C(=O)c1ccccc1C3=O | 60.7 µM (inactive) | 5.45 µM (inactive) | 8.09 µM (inactive) | > 100 µM (inactive) | 23.7 µM (inactive) | 16.8 µM (inactive) | – | 78.2 µM (inactive) | 20.5 µM (inactive) | 62.7 µM (inactive) | 40.2 µM (inactive) | 46.5 µM (inactive) | 22.8 µM (inactive) | > 100 µM (inactive) | 52.8 µM (inactive) | > 100 µM (inactive) | – | – | – | –
Cc1cc(Cl)ccc1Nc1nc2c(s1)C(=O)c1ccccc1C2=O | 1.45 µM (inactive) | 1.86 µM (inactive) | 7.28 µM (inactive) | 4.33 µM (inactive) | 1.8 µM (inactive) | 1.99 µM (inactive) | 0.621 µM (active) | 0.728 µM (active) | 2.2 µM (inactive) | 7.33 µM (inactive) | 1.84 µM (inactive) | 3.29 µM (inactive) | 8.49 µM (inactive) | 1.98 µM (inactive) | – | 4.55 µM (inactive) | 2.02 µM (inactive) | 1.53 µM (inactive) | 2.39 µM (inactive) | 1.68 µM (inactive)
COc1ccc(/C=C\c2cc(OC)c(OC)c(OC)c2)cc1OCC(=O)O | 4.78 µM (inactive) | 6.41 µM (inactive) | 6.15 µM (inactive) | > 100 µM (inactive) | 9.18 µM (inactive) | 3.36 µM (inactive) | 2.84 µM (inactive) | 4.55 µM (inactive) | 4.16 µM (inactive) | 5.15 µM (inactive) | 3.9 µM (inactive) | 20.7 µM (inactive) | 29 µM (inactive) | 6.61 µM (inactive) | – | > 100 µM (inactive) | – | 13.5 µM (inactive) | 2.93 µM (inactive) | 6.46 µM (inactive)
CCCCCCCCCCCCCCCCCc1nnc(N)o1 | > 100 µM (inactive) | > 100 µM (inactive) | – | > 100 µM (inactive) | > 100 µM (inactive) | > 100 µM (inactive) | > 100 µM (inactive) | > 100 µM (inactive) | – | > 100 µM (inactive) | 47.4 µM (inactive) | > 100 µM (inactive) | > 100 µM (inactive) | > 100 µM (inactive) | > 100 µM (inactive) | > 100 µM (inactive) | – | – | – | –
C1=CC2CCC1CN2CCC1CNc2ccccc21 (stereo unspecified) | > 100 µM (inactive) | > 100 µM (inactive) | 75.3 µM (inactive) | > 10 µM (inactive) | > 100 µM (inactive) | > 100 µM (inactive) | > 100 µM (inactive) | > 100 µM (inactive) | > 100 µM (inactive) | > 100 µM (inactive) | > 100 µM (inactive) | – | > 100 µM (inactive) | > 100 µM (inactive) | 52.7 µM (inactive) | > 100 µM (inactive) | – | – | – | –
COc1cccc(-c2cc(=O)c3cc(C)c(C)c(C(=O)O)c3o2)c1 | > 100 µM (inactive) | > 100 µM (inactive) | – | > 100 µM (inactive) | > 100 µM (inactive) | > 100 µM (inactive) | > 100 µM (inactive) | > 100 µM (inactive) | > 100 µM (inactive) | 16.9 µM (inactive) | > 100 µM (inactive) | > 100 µM (inactive) | > 100 µM (inactive) | > 100 µM (inactive) | > 100 µM (inactive) | > 100 µM (inactive) | – | – | – | –
Nc1c(C(=O)NC23CC4CC(CC(C4)C2)C3)[n+]([O-])c2ccccc2[n+]1[O-] | > 100 µM (inactive) | > 100 µM (inactive) | – | > 100 µM (inactive) | > 100 µM (inactive) | > 100 µM (inactive) | > 100 µM (inactive) | > 100 µM (inactive) | – | > 100 µM (inactive) | > 100 µM (inactive) | > 100 µM (inactive) | > 100 µM (inactive) | > 100 µM (inactive) | > 100 µM (inactive) | > 100 µM (inactive) | – | – | – | –
COC(=O)C12CC3CC(C1)CC(C(=O)OC)(C3)C2 | – | > 100 µM (inactive) | – | – | > 100 µM (inactive) | > 100 µM (inactive) | 55.8 µM (inactive) | > 100 µM (inactive) | > 100 µM (inactive) | > 100 µM (inactive) | > 100 µM (inactive) | > 100 µM (inactive) | > 100 µM (inactive) | > 100 µM (inactive) | > 100 µM (inactive) | > 100 µM (inactive) | – | – | – | –
